These results are taken from US20240408093A1, “HETEROBIFUNCTIONAL COMPOUNDS AND THEIR USE IN TREATING DISEASE” (HALDA THERAPEUTICS OPCO, INC., priority 2022, published 2024).

The target in one experiment is T1, BTK (Homo sapiens, UniProt Q06187).
T1 construct: BTK (amino acids 387-659)
Kind of experiment: Release of effector protein ligand from heterobifunctional compounds, BTK. The following applies: detected A1-3. It is filed as biochemical. On the procedure: Exemplary heterobifunctional compounds were evaluated for the ability to release an effector protein ligand in the presence of KRAS G12C, BTK, or EGFR T790M L858R target proteins.
Samples for mass spectrometry for KRAS G12C, BTK, and EGFR T790M L858R were prepared as described above for the intact mass spectrometry target engagement experiment, respectively, except rather than flash-freezing, 20 μL of sample was quenched with 50 μL of 100% acetonitrile. As well, a buffer-only control was used to detect latent release of effector protein ligand analyte. Internal standard (IS) solution consisted of 200 ng/mL propranolol and 50 ng/mL diclofenac in methanol:water 1:1 (v/v). A 4-point calibration curve (calibration standard (CS)) consisting of each analyte was made at final concentrations of 3 nM, 30 nM, 300 nM, and 3000 nM. Unknown samples were diluted such that the unknown analyte concentration was in the linear range of the calibration curve.
Samples for all proteins were prepared and analyzed from the following:
Samples were further analyzed with AB Sciex Triple Quad 5500 system coupled with Shimadzu Prominence HPLC.

Experiment [1] concerns HEK293 cells (ATCC CRL-1573). Kind of experiment: Cellular growth inhibition assay, HEK293 cells (Example 16). Conditions: Homo sapiens, 72 hours, CellTiter-Glo 2.0. It is filed as cell-based. The protocol: (§1) Exemplary compounds were tested for ability to inhibit the proliferation of HEK293 cells (ATCC CRL-1573) and HeLa cells (ATCC CCL-2).
(§2) HEK293 and HeLa cells were cultured in DMEM (Gibco 11995), supplemented with 10% Heat-inactivated FBS (Gibco A38400-01) and 1% Penicillin/Streptomycin (Gibco 15140-122) at 37° C. with 5% CO2 in a humidified tissue culture incubator. Cells were seeded at 500 cells/well in 384-well, Poly-D-lysine-treated blackplates (Perkin Elmer 6007710) in 25 μL media lacking selection for 18-24 hours. Plates were spun at 300 g for 30 seconds and stored in the incubator overnight. After 24 hours, a 25 μL aliquot of compound-containing medium was added in each well, at a final top concentration of 10 μM test compound, with 3-fold dilutions, using DMSO alone as a negative control. Plates were then spun at 300×g for 3 minutes again and cultured at 37° C. with 5% CO2. After 72 hours, cell viability was quantified with CellTiter-Glo 2.0 (Promega). After equilibrating cell plates at room temperature for 30 minutes, 25 μL CellTiter-Glo 2.0 reagent was dispensed into each well. Plates were mixed on a shaker for 2 minutes at 500 rpm, followed by a 10-minute incubation at room temperature. Luminescence readings were measured with an EnVision Plate Reader (Perkin Elmer). Data was normalized to DMSO treated cell wells. A four-parameter non-linear regression curve fit was applied to dose-response data in Prism to determine the half maximal growth inhibitory concentration (GI50) of each compound.
A general note: In ATP-based viability assays light output follows the ATP content of the culture.

Experiment [2] concerns the target T2, GSPT1 (Homo sapiens, UniProt P15170+Q96SW2).
T2 construct: host or cells: HEK293 LgBiT / GSPT1 HiBiT CRISPR knock-in
Kind of experiment: GSPT1 HiBiT degradation assay. Conditions: HEK293 LgBiT GSPT1 HiBiT cells, 6 hours. Type of experiment: cell-based. The source says: Promega developed a HEK293 cell line that constitutively expresses LgBiT protein and GSPT1_HiBiT fusion protein. When both proteins are present, the HiBiT portion of the fusion protein combines with LgBiT protein to form a functional luciferase enzyme. Endurazine, a cell permeable small molecule, is converted by cellular esterases into furimazine, which the luciferase enzyme uses as a substrate to generate luminescence. When GSPT1 is degraded, the HiBit is also degraded. This prevents formation of fully functional luciferase, leading to a loss in luminescence. GSPT1 degradation therefore correlates with a decrease in luminescence and can be measured continuously over time. The concentration of compound at which 50% GSPT1 degradation occurs (DC50) may be calculated using this system.
HEK293 LgBiTGSPT1 HiBiT CRISPR Knock-in cells were cultured in DMEM Media supplemented with 10% Heat-inactivated FBS, 1% Penicillin/Streptomycin, 200 μg/mL hygromycin and stored in a humidified incubator set at 37° C. and 5% CO2. 18-24 hours prior to compound treatment, cells were seeded at 1000 cells/well in a 384-well tissue culture-treated white plates in 25 μL media lacking selection for 18-24 hours. The plates were spun at 300 g for 30 seconds and stored in the incubator overnight. After 24 hours, compounds are titrated in DMSO and added to media supplemented with endurazine substrate. A 25 μL aliquot of 2× compound/endurazine in media is then added to the 384-well microplate with seeded cells. (Endurazine is used at a final concentration of 0.5×). The plate was spun at 300 g for 30 seconds and stored in the incubator. After 6 hours, the plate was read on a Perkin Elmer MultiMode Plate Reader Envision 2105 to measure luminescence signal. Data were plotted in Prism (Graphpad) and the concentration of compound at which 50% GSPT1 degradation occurs (DC50) was calculated.
(In general: The HiBiT peptide binds its large partner to form an active luciferase.)

The target in a further experiment is KRAS G12C (Homo sapiens, UniProt P01116, G12C). Kind of experiment: KRAS G12C nucleotide exchange assay (SOS1-mediated, HTRF). Type of experiment: biochemical. Also noted: GST-tagged KRAS G12C (amino acids 2-169). The following applies: 1 hr pre-incubation. On the procedure:
KRAS target engagement (IC50 determination) was performed using a KRAS G12C nucleotide exchange assay. Specifically, compounds were tested against KRAS G12C in 10-point concentration IC50 mode with 3-fold serial dilution at a starting concentration of 10 μM. ARS1620 was used as a control.
Briefly, GST-tagged KRAS G12C (amino acids 2-169) was mixed with anti-GST Tb antibody (1.5× solution) and 10 μL was delivered to reaction wells. Compounds were delivered using an acoustic dispenser (Echo, Labcyte) and pre-incubated with protein for 1 hr at RT. KRAS/anti-GST Tb Ab/compound mixture was incubated for 1 hour at room temperature. A 3× solution of SOS1 (amino acids 564-1049) and GTP-DY-647P1 (GTP*) was prepared in reaction buffer. A 5 μL aliquot of SOS1/GTP* solution was added to reaction wells to initiate the exchange reaction. No-SOS1 reaction or max compound concentration was used as blank. The final concentrations of KRAS G12C, SOS1, and GTP* were 30 nM, 20 nM, and 0.15 μM, respectively. SOS1 mediated exchange of GDP to GTP-DY-647P was measured using HTRF (Ex/Em=(320-75/665-7.5; 615-8.5)) using an Envision Plate Reader (Perkin Elmer). IC50 determination was performed using a Sigmoidal dose response (variable slope) equation.
On the technique in general: TR-FRET usually uses a lanthanide donor and a delayed reading to cut background.

A further experiment has as its system HeLa cells (ATCC CCL-2). Kind of experiment: Cellular growth inhibition assay, HeLa cells (Example 16). Type of experiment: cell-based. The following applies: Homo sapiens, 72 hours, CellTiter-Glo 2.0. On the procedure:
as §1, §2

The test system of experiment [3] is GSPT1. Kind of experiment: Payload release assay (DC50 readout), GSPT1 degradation in the presence of recombinant target protein. It is filed as cell-based. Conditions: I-series compounds (GSPT1 readout inferred). On the procedure:
Exemplary compounds were tested for ability to cause degradation of CCNK or GSPT1 in the presence of recombinant target protein.
HEK293 LgBiT/GSPT1 HiBiT CRISPR Knock-in cells (Promega) were cultured in DMEM (Gibco 11995), supplemented with 10% Heat-inactivated FBS (Gibco A38400-01) and 1% Penicillin/Streptomycin (Gibco 15140-122) and 200 Vg/ml Hygromycin B (Gibco 10-687-010) at 37° C. with 5% CO2 in a humidified tissue culture incubator. HEK293 LgBiT/CCNK HiBiT cells (in-house, described above) were cultured in DMEM (Gibco 11995), supplemented with 10% Heat-inactivated FBS (Gibco A38400-01) and 1% Penicillin/Streptomycin (Gibco 15140-122) 200 Vg/ml Hygromycin B (Gibco 10-687-010), and 1 Vg/ml Puromycin Dihydrochloride (Thermo A1113803) at 37° C. with 5% CO2 in a humidified tissue culture incubator. Cells were seeded (1000 cells/well for HEK293 LgBiT/GSPT1 HiBiT cells or 3000 cells/well for HEK293 LgBiT/CCNK HiBiT cells) 384-well, tissue culture-treated white plates (Perkin Elmer 6007680) in 10 μL media lacking selection for 18-24 hours. Plates were spun at 300 g for 30 seconds and stored in the incubator overnight. After 24 hours, a 5 μL aliquot of recombinant target protein (final concentration of either 5 μM KRAS amino acids 1-169, C51S, C80L, C118S, G12C or 3 μM EGFR amino acids 696-1022 or 3 μM EGFR amino acids 696-1022, T790M, L858R) was added to wells, followed immediately by a 5 μL aliquot of 4× compound-containing medium supplemented with Endurazine Substrate (Promega N2570) was added in each well, at a final top concentration of 10 μM test compound and 0.5× Endurazine, with 4-fold dilutions, using DMSO alone as a negative control. Plates were then spun at 300×g for 3 minutes again and cultured at 37° C. with 5% CO2. After 6 hours the plate was read on Envision MultiMode Plate Reader 2105 (Perkin Elmer) to measure luminescence signal. Data was normalized to DMSO treated cell wells. A four-parameter non-linear regression curve fit was applied to dose-response data in Prism to determine the half maximal growth inhibitory concentration (GI50) of each compound.

Where [4] appears, read: 0 μM recombinant KRAS G12C, read-out: DC50 at 0 μM KRAS G12C.
[5] abbreviates: 5 μM recombinant KRAS G12C, read-out: DC50 at 5 μM KRAS G12C.

Where two headings read alike, the source gives them in different places.

T1 sequence (Q06187 387-659): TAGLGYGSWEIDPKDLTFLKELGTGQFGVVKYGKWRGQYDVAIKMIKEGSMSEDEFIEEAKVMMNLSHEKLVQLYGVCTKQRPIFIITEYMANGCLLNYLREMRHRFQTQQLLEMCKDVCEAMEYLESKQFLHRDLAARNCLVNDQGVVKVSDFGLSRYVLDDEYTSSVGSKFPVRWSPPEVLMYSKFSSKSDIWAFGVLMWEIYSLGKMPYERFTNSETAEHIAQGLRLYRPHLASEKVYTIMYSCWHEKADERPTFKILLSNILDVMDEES
Sequence of KRAS G12C (P01116 2-169 isoform P01116-2 G12C): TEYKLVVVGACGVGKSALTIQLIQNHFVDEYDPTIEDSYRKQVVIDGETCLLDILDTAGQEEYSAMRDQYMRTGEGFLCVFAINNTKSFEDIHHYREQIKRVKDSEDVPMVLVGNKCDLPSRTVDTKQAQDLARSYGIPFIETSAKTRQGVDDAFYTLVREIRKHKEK
T2 sequence (P15170 whole entry): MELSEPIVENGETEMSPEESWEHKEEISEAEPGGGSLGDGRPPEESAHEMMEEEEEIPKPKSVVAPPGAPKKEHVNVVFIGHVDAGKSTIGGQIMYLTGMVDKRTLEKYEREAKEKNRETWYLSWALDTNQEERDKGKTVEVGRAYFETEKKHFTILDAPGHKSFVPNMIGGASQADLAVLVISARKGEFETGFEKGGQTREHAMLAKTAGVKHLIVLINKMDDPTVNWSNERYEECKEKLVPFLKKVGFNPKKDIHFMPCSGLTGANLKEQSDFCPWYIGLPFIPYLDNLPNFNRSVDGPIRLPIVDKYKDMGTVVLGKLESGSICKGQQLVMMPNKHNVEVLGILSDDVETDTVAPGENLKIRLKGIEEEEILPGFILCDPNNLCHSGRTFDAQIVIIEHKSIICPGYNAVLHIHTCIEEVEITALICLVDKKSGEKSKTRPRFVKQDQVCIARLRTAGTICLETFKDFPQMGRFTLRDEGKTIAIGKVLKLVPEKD
T2 sequence (Q96SW2 whole entry): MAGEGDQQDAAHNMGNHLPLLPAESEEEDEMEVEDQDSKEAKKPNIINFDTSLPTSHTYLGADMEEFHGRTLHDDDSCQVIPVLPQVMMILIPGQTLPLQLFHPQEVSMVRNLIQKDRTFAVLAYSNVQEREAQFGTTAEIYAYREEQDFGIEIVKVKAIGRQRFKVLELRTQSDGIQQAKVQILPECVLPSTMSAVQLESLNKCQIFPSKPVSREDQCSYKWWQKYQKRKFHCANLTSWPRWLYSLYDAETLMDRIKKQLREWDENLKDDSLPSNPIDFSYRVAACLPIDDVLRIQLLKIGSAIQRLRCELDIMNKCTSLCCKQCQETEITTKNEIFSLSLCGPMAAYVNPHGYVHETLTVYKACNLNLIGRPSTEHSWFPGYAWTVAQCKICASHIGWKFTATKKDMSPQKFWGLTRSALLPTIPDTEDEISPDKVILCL
T2 sequence (Q16531 whole entry partner): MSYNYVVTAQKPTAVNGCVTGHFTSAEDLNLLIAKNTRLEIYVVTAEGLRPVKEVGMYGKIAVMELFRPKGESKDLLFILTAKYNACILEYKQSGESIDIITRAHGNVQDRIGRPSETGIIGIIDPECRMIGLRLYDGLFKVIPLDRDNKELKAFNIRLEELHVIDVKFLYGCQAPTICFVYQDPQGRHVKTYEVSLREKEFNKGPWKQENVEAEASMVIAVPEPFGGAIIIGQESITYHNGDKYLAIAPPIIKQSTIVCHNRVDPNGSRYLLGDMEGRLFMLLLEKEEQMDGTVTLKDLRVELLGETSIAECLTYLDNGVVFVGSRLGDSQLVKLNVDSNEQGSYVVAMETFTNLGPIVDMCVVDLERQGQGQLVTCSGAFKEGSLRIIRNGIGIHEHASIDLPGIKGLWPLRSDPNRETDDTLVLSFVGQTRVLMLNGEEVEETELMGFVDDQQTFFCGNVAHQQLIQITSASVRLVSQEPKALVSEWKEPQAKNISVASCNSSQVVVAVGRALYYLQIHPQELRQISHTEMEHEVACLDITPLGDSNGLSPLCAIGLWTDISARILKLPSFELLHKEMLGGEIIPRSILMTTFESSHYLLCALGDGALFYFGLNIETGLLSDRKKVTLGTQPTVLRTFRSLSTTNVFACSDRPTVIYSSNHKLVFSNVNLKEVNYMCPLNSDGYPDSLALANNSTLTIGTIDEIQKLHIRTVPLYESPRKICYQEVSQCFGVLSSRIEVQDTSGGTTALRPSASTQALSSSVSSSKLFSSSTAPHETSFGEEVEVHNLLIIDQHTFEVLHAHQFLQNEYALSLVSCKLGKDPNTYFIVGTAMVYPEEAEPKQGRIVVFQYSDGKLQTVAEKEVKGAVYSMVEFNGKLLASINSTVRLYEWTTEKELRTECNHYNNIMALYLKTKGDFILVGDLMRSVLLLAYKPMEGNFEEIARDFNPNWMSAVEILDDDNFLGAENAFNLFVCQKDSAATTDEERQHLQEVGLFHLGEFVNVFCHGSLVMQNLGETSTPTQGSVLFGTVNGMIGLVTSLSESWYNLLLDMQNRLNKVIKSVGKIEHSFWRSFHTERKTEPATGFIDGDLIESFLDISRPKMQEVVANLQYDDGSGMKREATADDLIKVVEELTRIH

In the case of `C=C(Cn1cc(CNc2cc(N3CCCC[C@H]3CCO)nc3c(CC)cnn23)ccc1=O)C(=O)N(C)CCOc1c(N)ncnc1-c1cc(F)cc(NC(=O)c2ccc(C3CC3)cc2F)c1C` [Compound A1-5], the “Concentration of Effector Protein Ligand” value at BTK (Matrix Buffer + Protein (BTK), Time 0 h) was determined as 51.8 nM; at BTK (Matrix Buffer + Protein (BTK), Time 1 h), 72.3 nM; at BTK (Matrix Buffer + Protein (BTK), Time 4 h), 118 nM; at BTK (Matrix Buffer + Protein (BTK), Time 22 h), 164 nM; at BTK (Matrix Buffer, Time 0 h), 44.9 nM; at BTK (Matrix Buffer, Time 1 h) it was 49 nM. The “Concentration of Effector Protein Ligand” value on BTK (Matrix Buffer, Time 4 h) is listed as 52.4 nM; on BTK (Matrix Buffer, Time 22 h) it was 80.5 nM.

In the case of `C=C(COc1cc(Cl)cc(NC(=O)NCc2ccc3c(c2)CN(C2CCC(=O)NC2=O)C3=O)c1)C(=O)N1CC(n2c(=O)c3cc(-c4cc(O)cc5ccccc45)ccc3n2C)C1` (stereo not drawn) [Compound I-57], the 50% growth inhibitory concentration (GI50) in experiment [1] is less than 0.5 µM; in the experiment with HeLa cells (ATCC CCL-2), 1.5 to 10 µM. Moreover, the DC50 is 0.05 to 0.5 µM on GSPT1 [2], less than 0.25 µM in the experiment with GSPT1 [3] (setting [4]) and less than 0.25 µM in the experiment with GSPT1 [3] (setting [5]). The molecule further came in with a 50% inhibitory concentration (IC50) against KRAS G12C greater than 10 µM.

On to `C=C(COc1cc(C(F)(F)C(=O)NCc2ccc3c(c2)CN(C2CCC(=O)NC2=O)C3=O)ccc1Cl)C(=O)N1CCN(c2nc(OC[C@@H]3CCCN3C)nc3c2CCN(c2cccc4cccc(Cl)c24)C3)C[C@@H]1CC#N` (stereo partly drawn) [Compound I-81], for which the concentration for 50% growth inhibition (GI50) in experiment [1] lay within 1.5 to 10 µM. Also, the DC50 was 0.05 to 0.5 µM on GSPT1 [2], 0.25 to 5 µM with GSPT1 [3] (setting [4]) and greater than 10 µM with GSPT1 [3] (setting [5]). The IC50 at KRAS G12C was less than 0.1 µM.

As to `C=C(COc1cc(Cl)cc(NC(=O)NCc2ccc3c(c2)CN(C2CCC(=O)NC2=O)C3=O)c1)C(=O)N1CCN(c2ncnc3c(F)c(-c4c(O)cccc4F)c(Cl)cc23)CC1` (stereo not drawn) [Compound I-43], the values for the 50% growth inhibitory concentration (GI50) (in experiment [1]; in the experiment on HeLa cells (ATCC CCL-2)) were less than 0.5 µM and 0.5 to 1.5 µM, respectively. Further, the DC50 at GSPT1 [2] was in the range of 0.05 to 0.5 µM. At KRAS G12C, this molecule displayed a half-maximal inhibitory concentration (IC50) greater than 10 µM.

`C=C(CN1C(=O)CCC(N2Cc3cc(CNC(=O)Nc4cccc(Cl)c4O)ccc3C2=O)C1=O)C(=O)N1CCN(c2nc(OC[C@@H]3CCCN3C)nc3c2CCN(c2cccc4cccc(Cl)c24)C3)C[C@@H]1CC#N` (stereo partly drawn) [Compound I-83] displayed a GI50 in experiment [1] of 1.5 to 10 µM. Besides, the half-maximal degradation concentration (DC50) at GSPT1 [2] was 0.5 to 2.5 µM; in the experiment on GSPT1 [3] (setting [4]), 0.25 to 5 µM; with GSPT1 [3] (setting [5]), greater than 10 µM. The concentration for half-maximal inhibition (IC50) against KRAS G12C lay in the range of 0.1 to 5 µM.

On to `C=C(COc1cc([N+](=O)[O-])c(Cl)cc1NC(=O)NCc1ccc2c(c1)CN(C1CCC(=O)NC1=O)C2=O)C(=O)N1CCN(c2nc(OC[C@@H]3CCCN3C)nc3c2CCN(c2cccc4cccc(Cl)c24)C3)C[C@@H]1CC#N` (stereo partly drawn) [Compound I-82], for which the GI50 in experiment [1] was greater than 10 µM. For the same molecule, the DC50 at GSPT1 [2] was greater than 2.5 µM; in the experiment on GSPT1 [3] (setting [4]), greater than 10 µM; in the experiment on GSPT1 [3] (setting [5]), 5 to 10 µM. Further, the IC50 on KRAS G12C is 0.1 to 5 µM.

By GI50 is commonly meant the concentration at which growth is held to half of that of the control. Low values mean greater sensitivity of the cells, high ones lower sensitivity of the cells. The DC50 is the concentration giving 50% degradation. A word on the IC50: it is the midpoint of a concentration-inhibition curve. The low end stands for greater potency, the high end for weaker potency.
